{
  "source": "patent US20040202705A1",
  "about": "(priority 1999, published 2004)",
  "origin": "cited, not measured here",
  "settings": "human, in vivo",
  "data": [
    {"compound": "Nc1c2c(nc3ccccc13)CCCC2", "note": "[Tacrine]", "values": [
      {"measurement": "Patients with reversible hepatotoxicity", "value": "approximately 30%"}
    ]}
  ]
}
